Article PMC6522912, “Evaluation of the published kinase inhibitor set to identify multiple inhibitors of bacterial ATP-dependent mur ligases” (Journal of Enzyme Inhibition and Medicinal Chemistry, 2019)

Assays:
E. coli MurC = E. coli MurC (Escherichia coli, UniProt P17952); assay: Malachite green inhibition assay, MurC; type: biochemical; details: for remaining activity at 100 µM: 0.25 h, read-out: RA [%] at 100 µM MurC
E. coli MurD = E. coli MurD (Escherichia coli, UniProt P14900); assay: biochemical; details: for remaining activity at 100 µM: 0.25 h, Table S1, PKIS screening, read-out: RA [%] at 100 µM MurD
E. coli MurD, sequence (P14900 whole entry): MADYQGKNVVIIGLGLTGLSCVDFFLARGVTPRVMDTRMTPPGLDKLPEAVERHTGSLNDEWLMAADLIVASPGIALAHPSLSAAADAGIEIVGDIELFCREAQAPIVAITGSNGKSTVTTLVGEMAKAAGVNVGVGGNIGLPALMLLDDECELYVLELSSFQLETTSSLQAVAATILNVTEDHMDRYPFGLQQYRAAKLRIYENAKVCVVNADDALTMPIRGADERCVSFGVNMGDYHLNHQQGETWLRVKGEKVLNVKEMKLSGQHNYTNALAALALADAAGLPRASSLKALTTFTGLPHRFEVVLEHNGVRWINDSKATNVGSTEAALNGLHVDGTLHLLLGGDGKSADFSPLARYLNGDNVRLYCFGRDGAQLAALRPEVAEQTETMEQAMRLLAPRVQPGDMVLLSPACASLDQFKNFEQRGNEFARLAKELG
Procedure, shortened: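 Orthophosphate released by E. coli MurD quantified by malachite green (Biomol green) absorbance at 650 nm after 15 min at 37 °C. Residual activity relative to DMSO-only controls.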

E. coli MurF = E. coli MurF (Escherichia coli, UniProt P11880); assay: biochemical; details: Table S1, PKIS screening; for remaining activity at 100 µM: 0.25 h, read-out: RA [%] at 100 µM MurF
E. coli MurF, sequence (P11880 whole entry): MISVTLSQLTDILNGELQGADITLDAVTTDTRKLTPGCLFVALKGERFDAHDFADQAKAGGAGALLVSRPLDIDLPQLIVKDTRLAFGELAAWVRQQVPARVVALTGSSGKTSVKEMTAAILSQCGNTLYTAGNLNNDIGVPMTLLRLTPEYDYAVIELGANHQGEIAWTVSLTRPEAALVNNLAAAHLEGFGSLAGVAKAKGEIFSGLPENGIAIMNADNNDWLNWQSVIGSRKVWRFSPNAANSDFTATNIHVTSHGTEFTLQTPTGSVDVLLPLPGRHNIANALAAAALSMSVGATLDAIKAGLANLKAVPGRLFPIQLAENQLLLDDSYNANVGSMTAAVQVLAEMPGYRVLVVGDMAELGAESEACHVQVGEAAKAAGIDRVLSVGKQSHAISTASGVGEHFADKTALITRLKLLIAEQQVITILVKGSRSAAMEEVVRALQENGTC

E. coli MurC, sequence (P17952 whole entry): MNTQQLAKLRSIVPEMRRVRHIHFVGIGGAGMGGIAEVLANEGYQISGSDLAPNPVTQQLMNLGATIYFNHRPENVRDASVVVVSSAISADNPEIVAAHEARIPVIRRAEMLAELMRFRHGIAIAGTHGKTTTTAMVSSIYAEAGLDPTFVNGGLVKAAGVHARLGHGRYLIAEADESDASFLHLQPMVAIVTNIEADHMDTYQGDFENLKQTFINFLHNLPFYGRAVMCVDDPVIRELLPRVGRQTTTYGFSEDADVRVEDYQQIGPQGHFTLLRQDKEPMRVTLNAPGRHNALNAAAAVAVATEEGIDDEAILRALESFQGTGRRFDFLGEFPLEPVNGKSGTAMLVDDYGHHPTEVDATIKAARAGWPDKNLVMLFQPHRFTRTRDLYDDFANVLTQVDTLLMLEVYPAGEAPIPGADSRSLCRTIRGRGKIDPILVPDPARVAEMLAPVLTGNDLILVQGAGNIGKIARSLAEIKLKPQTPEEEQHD

Row | Compound | remaining activity at 100 µM (E. coli MurC; Table S1, PKIS screening) | remaining activity at 100 µM (E. coli MurD) | remaining activity at 100 µM (E. coli MurF) | IC50 (E. coli MurC; printed in the RA cell of Table S1, read-out: IC50 MurC) | IC50 (E. coli MurD; printed in the RA cell of Table S1, read-out: IC50 MurD) | RA [%] at 100 µM MurC (E. coli MurC; Table S1, PKIS screening) | RA [%] at 100 µM MurD (E. coli MurD) | RA [%] at 100 µM MurF (E. coli MurF)
1 | [O-][S+]1CCN(Cc2ccc(-c3ccc4ncnc(Nc5ccc(OCc6ccccc6)c(Cl)c5)c4c3)o2)CC1 [GW583373A] | 62% | 59% | 60% | – | – | – | – | –
2 | COC(=O)Nc1nc2ccc(Oc3ccc(NC(=O)Nc4cccc(Cl)c4)cc3)cc2[nH]1 [GW589961A] | 77% | 81% | 83% | – | – | – | – | –
3 | COC(=O)Nc1nc2ccc(Sc3ccc(NC(=O)Nc4cc(C(F)(F)F)ccc4F)cc3)cc2[nH]1 [GW607049C] | 62% | 80% | 91% | – | – | – | – | –
4 | Cc1nnc(-c2ccc(C)c(-c3ccc(C(=O)Nc4cccc(C#N)c4)cc3)c2)o1 [GW607117X] | 72% | 100% | 90% | – | – | – | – | –
5 | COc1cc(Nc2nccc(Nc3ccc4c(C)n[nH]c4c3)n2)cc(OC)c1OC [GW612286X] | 86% | 94% | 100% | – | – | – | – | –
6 | O=S(=O)(CCOCc1ccc(-c2ccc3ncnc(Nc4ccc(OCc5cccc(F)c5)c(Cl)c4)c3c2)o1)c1ccccc1 [GW615311X] | 97% | 91% | 100% | – | – | – | – | –
7 | CS(=O)(=O)CCN(CC#N)Cc1ccc(-c2ccc3ncnc(Nc4ccc(OCc5cccc(F)c5)c(Cl)c4)c3c2)o1 [GW616030X] | 76% | 59% | 80% | – | – | – | – | –
8 | CCS(=O)(=O)c1ccc(OC)c(Nc2ncc(-c3cccc(C(C)=O)c3)o2)c1 [GW621431X] | 68% | 93% | 73% | – | – | – | – | –
9 | CCCN(CCS(C)(=O)=O)Cc1ccc(-c2ccc3ncnc(Nc4ccc(OCc5cccc(F)c5)c(Cl)c4)c3c2)o1 [GW621823A] | 36% | 42% | 96% | – | – | – | – | –
10 | CCS(=O)(=O)c1ccc(OC)c(Nc2ncc(-c3cccc(F)c3)o2)c1 [GW621970X] | 76% | 55% | 89% | – | – | – | – | –
11 | CCS(=O)(=O)c1ccc(OC)c(Nc2ncc(-c3ccccc3Cl)o2)c1 [GW622055X] | 74% | 65% | 80% | – | – | – | – | –
12 | COc1cc(Nc2ncc(-c3ccccc3)o2)cc(OC)c1OC [GW627512B] | 98% | 72% | 100% | – | – | – | – | –
13 | N#Cc1cccc(Nc2ncc(-c3ccccc3)o2)c1 [GW627834A] | 78% | 75% | 85% | – | – | – | – | –
14 | COc1cc(Nc2ncc(-c3ccccc3)o2)cc(OC)c1 [GW631581B] | 64% | 79% | 97% | – | – | – | – | –
15 | Cc1cccc(Nc2ncc(-c3ccccc3)o2)c1 [GW632046X] | 100% | 84% | 97% | – | – | – | – | –
16 | COc1ccc(COc2ccc(Cc3cnc(N)nc3N)cc2OC)cc1 [GW632580X] | 88% | 89% | 99% | – | – | – | – | –
17 | O=S(=O)(CCNCc1ccc(-c2ccc3ncnc(Nc4ccc(OCc5cccc(F)c5)c(Cl)c4)c3c2)o1)c1ccccc1 [GW633459A] | 100% | 80% | 84% | – | – | – | – | –
18 | COc1ccc(-c2coc3ncnc(N)c23)cc1 [GW642125X] | 100% | 83% | 85% | – | – | – | – | –
19 | COc1ccc(-c2cc3c(N)ncnc3o2)cc1 [GW642138X] | 74% | 93% | 81% | – | – | – | – | –
20 | COc1cc(C=NNc2ncnc3c2cnn3Cc2ccccc2)ccc1O [GW643971X] | 56% | 78% | 25% | – | – | – | – | –
21 | COc1cc(/C=N/Nc2ncnc3c2cnn3C(C)C)ccc1O [GW644007X] | 87% | 91% | 78% | – | – | – | – | –
22 | Fc1cccc(COc2ccc(Nc3ncncc3C#Cc3ccccc3)cc2Cl)c1 [GW651576X] | 44% | 43% | 91% | 120 µM | 90 µM | – | – | –
23 | CCc1cccc(NC(=O)Nc2ccc(Oc3ccc4nc(NC(=O)OC)[nH]c4c3)cc2)c1 [GW673715X] | 79% | 83% | 68% | – | – | – | – | –
24 | CCS(=O)(=O)c1ccc(OC)c(Nc2ncc(-c3cccc(-c4ccccc4F)c3)o2)c1 [GW678313X] | 87% | 64% | 82% | – | – | – | – | –

Row | Compound | remaining activity at 100 µM (E. coli MurC; Table S1, PKIS screening) | remaining activity at 100 µM (E. coli MurD) | remaining activity at 100 µM (E. coli MurF) | IC50 (E. coli MurC; printed in the RA cell of Table S1, read-out: IC50 MurC) | IC50 (E. coli MurD; printed in the RA cell of Table S1, read-out: IC50 MurD) | RA [%] at 100 µM MurC (E. coli MurC; Table S1, PKIS screening) | RA [%] at 100 µM MurD (E. coli MurD) | RA [%] at 100 µM MurF (E. coli MurF)
25 | COc1ccc(-c2cc(-c3c[nH]nc3-c3ccccn3)ccn2)cc1 [GW679410X#4] | – | – | – | – | – | 61% | 98% | 82%
26 | C#Cc1cccc(Nc2ncnc3ccc(OCCCCNCCS(C)(=O)=O)cc23)c1 [GW680191X] | 75% | 93% | 102% | – | – | – | – | –
27 | COC(=O)Nc1nc2ccc(S(=O)(=O)c3ccc(NC(=O)Nc4cc(C(F)(F)F)ccc4F)cc3)cc2[nH]1 [GW680908A] | 77% | 69% | 97% | – | – | – | – | –
28 | Fc1ccc(-c2cc(-c3c[nH]nc3-c3ccccn3)ccn2)cc1 [GW680975X] | 68% | 84% | 96% | – | – | – | – | –
29 | CC(C)c1ccc(-c2cc(-c3c[nH]nc3-c3ccccn3)ccn2)cc1 [GW682841X] | 78% | 85% | 88% | – | – | – | – | –
30 | O=C(Nc1ccc(Oc2ccc3nc(NC(=O)c4ccco4)[nH]c3c2)cc1)Nc1cc(C(F)(F)F)ccc1F [GW683134A] | 74% | 86% | 100% | – | – | – | – | –
31 | Fc1cccc(COc2ccc(Nc3ncnc4sc(-c5cccs5)cc34)cc2Cl)c1 [GW684626B] | 59% | 75% | 100% | – | – | – | – | –
32 | Nc1nc(-c2ccccn2)c(-c2ccc3ncccc3n2)s1 [GW693481X] | 99% | 88% | 94% | – | – | – | – | –
33 | COC(=O)Nc1nc2ccc(Oc3ccc(NC(=O)Nc4cccc(Br)c4)cc3)cc2[nH]1 [GW694234A] | 71% | 86% | 72% | – | – | – | – | –
34 | COC(=O)Nc1nc2ccc(Oc3ccc(NC(=O)Nc4ccccc4)cc3)cc2[nH]1 [GW694590A] | 62% | 99% | 75% | – | – | – | – | –
35 | c1ccc(-c2n[nH]cc2-c2ccnc(-c3ccc(OCCN4CCOCC4)cc3)c2)nc1 [GW695874X] | 79% | 80% | 91% | – | – | – | – | –
36 | CN1CCN(CCCNc2nc3ccc(Oc4ccc(NC(=O)Nc5cc(C(F)(F)F)ccc5F)cc4)cc3[nH]2)CC1 [GW700494A] | 99% | 73% | 95% | – | – | – | – | –
37 | c1cc(-c2cnn3nc(N4CCOCC4)ccc23)nc(NC2CC2)n1 [GW708336X] | 98% | 92% | 98% | – | – | – | – | –
38 | Cc1nnc(-c2ccc(C)c(-c3ccc(C(=O)NCc4ccc(Cl)cc4)cc3)c2)o1 [GW708893X] | 100% | 100% | 94% | – | – | – | – | –
39 | O=C(Nc1ccc(Oc2ccc3nc(NC(=O)c4ccccc4)[nH]c3c2)cc1)Nc1cc(C(F)(F)F)ccc1F [GW709042A] | 100% | 95% | 100% | – | – | – | – | –
40 | c1ccc(-c2n[nH]cc2-c2ccnc(-c3ccc(OCCn4ccnc4)cc3)c2)nc1 [GW711782X] | 100% | 74% | 93% | – | – | – | – | –
41 | Cc1nnc(-c2cccc(-c3ccc(C(=O)NCC4CC4)cc3)c2)o1 [GW734508X] | 89% | 100% | 74% | – | – | – | – | –
42 | Cc1ccc(NC(=O)c2ccnc(N3CCCC3)c2)cc1-c1ccc(C(=O)NCC2CC2)cc1 [GW769076X] | 38% | 56% | 62% | – | – | – | – | –
43 | Cc1nn(C)c2cc(N(C)c3ccnc(Nc4cccc(S(N)(=O)=O)c4)n3)ccc12 [GW770220A] | 91% | 86% | 74% | – | – | – | – | –
44 | Nc1ncnc2occ(-c3ccc(NC(=O)Nc4cc(C(F)(F)F)ccc4F)cc3)c12 [GW770249A] | 60% | 83% | 63% | – | – | – | – | –
45 | N#Cc1cccc(Nc2nccc(-c3cnn4ncccc34)n2)c1 [GW778894X] | 66% | 70% | 68% | – | – | – | – | –
46 | CCN(CC)Cc1ccc(Nc2nccc(-c3cnn4ncccc34)n2)cc1 [GW780056X] | 78% | 78% | 88% | – | – | – | – | –
47 | Nc1nc(-c2cccc(Cl)c2)c(-c2ccc3ncccc3n2)s1 [GW780159X] | 56% | 90% | 83% | – | – | – | – | –
48 | NC(=O)c1cccc(Nc2nccc(Nc3cccc4[nH]ncc34)n2)c1 [GW782612X] | 86% | 92% | 77% | – | – | – | – | –
